From US12145941B2, “Heterocyclic antiviral agents” (ENANTA PHARMACEUTICALS, INC., priority 2021, dated 2024) come the findings set out here.

Each structure is given as a SMILES string. pIC50: −log10 of the molar value.

The target in the first assay is SARS-CoV-2 3CL-protease (Severe acute respiratory syndrome coronavirus 2 (2019-nCoV) (SARS-CoV-2), UniProt P0DTD1). The assay can be described thus: SARS-CoV-2 3C-like (3CL) protease fluorescence assay (FRET). Conditions: recombinant SARS-CoV-2 3CL-protease 10 nM, 30 min preincubation at RT, TAMRA-SITSAVLQSGFRKMK-Dabcyl-OH substrate, run in duplicate. The format is biochemical. The protocol:
SARS-CoV-2 3C-like (3CL) protease fluorescence assay (FRET): Recombinant SARS-CoV-2 3CL-protease was expressed and purified. TAMRA-[…]-Dabcyl-OH peptide 3CLpro substrate was synthesized. Black, low volume, round-bottom, 384 well microplates were used. In a typical assay, 0.85 μL of test compound was dissolved in DMSO then incubated with SARS-CoV-2 3CL-protease (10 nM) in 10 μL assay buffer (50 mM HEPES [pH 7.5], 1 mM DTT, 0.01% BSA, 0.01% Triton-X 100) for 30 min at RT. Next, 10 μL of 3CL-protease substrate (40 μM) in assay buffer was added and the assays were monitored continuously for 1 h in an Envision multimode plate reader operating in fluorescence kinetics mode with excitation at 540 nm and emission at 580 nm at RT. No compound (DMSO only) and no enzyme controls were routinely included in each plate. All experiments were run in duplicate. Data Analysis: SARS-CoV-2 3CL-protease enzyme activity was measured as initial velocity of the linear phase (RFU/s) and normalized to controlled samples DMSO (100% activity) and no enzyme (0% activity) to determine percent residual activity at various concentrations of test compounds (0-10 μM). Data were fitted to normalized activity (variable slope) versus concentration fit in GraphPad Prism 7 to determine IC50.
With `CC(C)C[C@H](C(=O)N1C[C@]2(C[C@H]1C#N)C(=O)Nc1ccccc12)n1cccc(-c2ccc(F)cc2)c1=O` [Compound 25-b], the pIC50 was less than 6.00.

Regarding `CC(C)C[C@@H](C(=O)N1C[C@]2(C[C@H]1C#N)C(=O)Nc1ccccc12)N1Cc2cc(Br)ccc2C1=O` [Compound 9, (3R,5'S)-1′-((S)-2-(5-bromo-1-oxoisoindolin-2-yl)-4-methylpentanoyl) oxospiro[indoline-3,3′-pyrrolidine]-5′-carbonitrile], the pIC50 was more than 7.00.

Staying with this assay, now noted: recombinant SARS-CoV-2 3CL-protease 10 nM, 30 min preincubation at RT, TAMRA-[…]-Dabcyl-OH substrate, run in duplicate.
On to `CC(C)C[C@@H](C(=O)N1C[C@]2(C[C@H]1C#N)C(=O)Nc1ccccc12)N1CCc2ccc(F)cc2C1=O` [Compound 2], for which the pIC50 is more than 7.00. Consider `CC(C)C[C@@H](C(=O)N1C[C@]2(C[C@H]1C#N)C(=O)Nc1ccccc12)N1CCc2cccc(F)c2C1=O` [Compound 1, (3R,5'S)-1′-((S)-2-(8-fluoro-1-oxo-3,4-dihydroisoquinolin-2(1H)-yl)-4-methylpentanoyl)-2-oxospiro[indoline-3,3′-pyrrolidine]-5′-carbonitrile], for which the pIC50 is 6.00 to 7.00.

For the molecule `COc1ccc2c(c1)CN([C@@H](CC(C)(C)C)C(=O)N1C[C@]3(C[C@H]1C#N)C(=O)Nc1ccccc13)C2=O` [Compound 17], the pIC50 was more than 7.00.

As for `CC(C)C[C@@H](C(=O)N1C[C@]2(C[C@H]1C#N)C(=O)Nc1ccccc12)N1C(=O)c2ccccc2[C@H]1C` [Compound 22-a, (3R,5'S)-1′-((S)-4-methyl-2-((R)-1-methyl-3-oxoisoindolin-2-yl)pentanoyl)-2-oxospiro[indoline-3,3′-pyrrolidine]-5′-carbonitrile], the pIC50 is more than 7.00. Take `CC(C)C[C@@H](C(=O)N1C[C@]2(C[C@H]1C#N)C(=O)Nc1ccccc12)N1C(=O)c2ccccc2[C@@H]1C` [Compound 22-b, (3R,5'S)-1′-((S)-4-methyl-2-((S)-1-methyl-3-oxoisoindolin-2-yl)pentanoyl)-2-oxospiro[indoline-3,3′-pyrrolidine]-5′-carbonitrile]: the pIC50 is more than 7.00. Turning to `CC(C)C[C@H](C(=O)N1C[C@]2(C[C@H]1C#N)C(=O)Nc1ccccc12)n1cccc(-c2ccncc2)c1=O` [Compound 26-b], the pIC50 was less than 6.00. With `CC(C)(C)C[C@@H](C(=O)N1C[C@]2(C[C@H]1C#N)C(=O)Nc1ccccc12)N1CCc2cccc(F)c2C1=O` [Compound 8], the pIC50 is 6.00 to 7.00. Still for that read-out and setting: with `CC(C)(F)C[C@@H](C(=O)N1C[C@]2(C[C@H]1C#N)C(=O)Nc1ccccc12)N1Cc2c(Cl)cccc2C1=O` [Compound 14] the figure was more than 7.00. Turning to `CC(C)C[C@@H](C(=O)N1C[C@]2(C[C@H]1C#N)C(=O)Nc1ccccc12)N1Cc2c(cccc2C(F)(F)F)C1=O` [Compound 10], the pIC50 was more than 7.00. Turning to `CC(C)(F)C[C@@H](C(=O)N1C[C@]2(C[C@H]1C#N)C(=O)Nc1ccccc12)N1Cc2ccc(Cl)cc2C1=O` [Compound 15], the pIC50 is more than 7.00. Take `CC(C)(F)C[C@@H](C(=O)N1C[C@]2(C[C@H]1C#N)C(=O)Nc1ccccc12)N1Cc2cc(Cl)ccc2C1=O` [Compound 13]: the pIC50 was more than 7.00. For `COc1ccc2c(c1)C(=O)N([C@@H](CC(C)(C)C)C(=O)N1C[C@]3(C[C@H]1C#N)C(=O)Nc1ccccc13)C2` [Compound 18], the pIC50 is more than 7.00.

Regarding `CC(C)(C)C[C@@H](C(=O)N1C[C@]2(C[C@H]1C#N)C(=O)Nc1ccccc12)N1CCc2ccc(F)cc2C1=O` [Compound 7], the pIC50 is more than 7.00. For the molecule `CC(C)(C)C[C@@H](C(=O)N1C[C@]2(C[C@H]1C#N)C(=O)Nc1ccccc12)N1Cc2cc(Cl)ccc2C1=O` [Compound 12], the pIC50 was more than 7.00. For the molecule `CC(C)C[C@@H](C(=O)N1C[C@]2(C[C@H]1C#N)C(=O)Nc1ccccc12)n1cccc(-c2ccncc2)c1=O` [Compound 26-a], the pIC50 was 6.00 to 7.00. As for `CC(C)C[C@@H](C(=O)N1C[C@]2(C[C@H]1C#N)C(=O)Nc1ccccc12)N1C(=O)c2ccc(F)cc2C1(C)C` [Compound 24], the pIC50 was less than 6.00. Same read-out and setting: with `CC(C)C[C@@H](C(=O)N1C[C@]2(C[C@H]1C#N)C(=O)Nc1ccccc12)N1CCc2cc(F)ccc2C1=O` [Compound 4] the figure was more than 7.00; with `CC(C)C[C@@H](C(=O)N1C[C@]2(C[C@H]1C#N)C(=O)Nc1ccccc12)N1CCc2c(F)cccc2C1=O` [Compound 3], more than 7.00; with `CC(C)(C)C[C@@H](C(=O)N1C[C@]2(C[C@H]1C#N)C(=O)Nc1ccccc12)N1CCc2cc(F)ccc2C1=O` [Compound 6], more than 7.00. Still for that read-out and setting: with `CC(C)(C)C[C@@H](C(=O)N1C[C@]2(C[C@H]1C#N)C(=O)Nc1ccccc12)N1Cc2cccnc2C1=O` [Compound 20] the figure was 6.00 to 7.00; with `CC(C)(C)C[C@@H](C(=O)N1C[C@]2(C[C@H]1C#N)C(=O)Nc1ccccc12)N1Cc2c(cccc2C(F)(F)F)C1=O` [Compound 11], more than 7.00.

For `C=C1c2ccccc2C(=O)N1[C@@H](CC(C)C)C(=O)N1C[C@]2(C[C@H]1C#N)C(=O)Nc1ccccc12` [Compound 22-c, (3R,5'S)-1′-((S)-4-methyl-2-(1-methylene-3-oxoisoindolin-2-yl)pentanoyl)-2-oxospiro[indoline-3,3′-pyrrolidine]-5′-carbonitrile], the pIC50 was more than 7.00. Consider `COc1cccc2c1CN([C@@H](CC(C)(C)C)C(=O)N1C[C@]3(C[C@H]1C#N)C(=O)Nc1ccccc13)C2=O` [Compound 19], for which the pIC50 was more than 7.00. As for `CC(C)(C)C[C@@H](C(=O)N1C[C@]2(C[C@H]1C#N)C(=O)Nc1ccccc12)N1C(=O)c2ccc(F)cc2C1(C)C` [Compound 23, (3R,5'S)-1′-((S)-2-(6-fluoro-1,1-dimethyl-3-oxoisoindolin-2-yl)-4,4-dimethylpentanoyl)-2-oxospiro[indoline-3,3′-pyrrolidine]-5′-carbonitrile], the pIC50 was 6.00 to 7.00. The same measure, in the same setting: with `CC(C)(C)C[C@@H](C(=O)N1C[C@]2(C[C@H]1C#N)C(=O)Nc1ccccc12)N1CCc2c(F)cccc2C1=O` [Compound 5] the figure was more than 7.00; with `CC(C)(F)C[C@@H](C(=O)N1C[C@]2(C[C@H]1C#N)C(=O)Nc1ccccc12)N1Cc2cccc(Cl)c2C1=O` [Compound 16], 6.00 to 7.00; with `CC(C)(F)C[C@@H](C(=O)N1C[C@]2(C[C@H]1C#N)C(=O)Nc1ccccc12)N1Cc2ncc(Cl)cc2C1=O` [Compound 21], more than 7.00.

As a reminder, the pIC50 is −log10 of the IC50, conventionally taken in molar units.
